Measured values published in patent publication US11572590B2, “Methods for evaluating tumor cell spheroids using 3D microfluidic cell culture device” (Dana-Farber Cancer Institute, Inc., priority 2017, dated 2023).
Like-named read-outs stand apart in the source and are kept apart here.

What was measured:
Assay in all cases: SelectScreen Kinase Profiling, single point inhibition and IC50 for off-target kinases
Type in all cases: biochemical
off-target kinases [1] = target: off-target kinases (Homo sapiens, UniProt Q9HCP0); conditions: CSNK1G1 (CK1 gamma 1); Cmpd1 1000 μM; ATP Km app; ZLYTE
off-target kinases (Homo sapiens, UniProt Q9HCP0), sequence (Q9HCP0 whole entry): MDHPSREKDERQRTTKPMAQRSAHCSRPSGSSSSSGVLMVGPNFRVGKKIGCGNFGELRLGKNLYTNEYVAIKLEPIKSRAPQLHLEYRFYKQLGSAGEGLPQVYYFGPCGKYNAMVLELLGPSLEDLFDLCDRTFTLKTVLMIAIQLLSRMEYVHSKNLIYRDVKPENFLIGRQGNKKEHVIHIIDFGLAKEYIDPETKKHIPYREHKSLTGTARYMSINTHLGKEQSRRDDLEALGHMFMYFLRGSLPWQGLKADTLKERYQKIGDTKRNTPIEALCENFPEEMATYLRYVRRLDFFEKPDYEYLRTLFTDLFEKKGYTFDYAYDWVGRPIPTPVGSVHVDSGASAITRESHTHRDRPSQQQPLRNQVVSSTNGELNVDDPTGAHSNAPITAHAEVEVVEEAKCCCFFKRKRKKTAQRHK

off-target kinases [2] = target: T1, off-target kinases (Homo sapiens, UniProt Q9NRA0); conditions: SPHK2; Cmpd1 1000 μM; ATP 10; Adapta
T1 sequence (Q9NRA0 1-654): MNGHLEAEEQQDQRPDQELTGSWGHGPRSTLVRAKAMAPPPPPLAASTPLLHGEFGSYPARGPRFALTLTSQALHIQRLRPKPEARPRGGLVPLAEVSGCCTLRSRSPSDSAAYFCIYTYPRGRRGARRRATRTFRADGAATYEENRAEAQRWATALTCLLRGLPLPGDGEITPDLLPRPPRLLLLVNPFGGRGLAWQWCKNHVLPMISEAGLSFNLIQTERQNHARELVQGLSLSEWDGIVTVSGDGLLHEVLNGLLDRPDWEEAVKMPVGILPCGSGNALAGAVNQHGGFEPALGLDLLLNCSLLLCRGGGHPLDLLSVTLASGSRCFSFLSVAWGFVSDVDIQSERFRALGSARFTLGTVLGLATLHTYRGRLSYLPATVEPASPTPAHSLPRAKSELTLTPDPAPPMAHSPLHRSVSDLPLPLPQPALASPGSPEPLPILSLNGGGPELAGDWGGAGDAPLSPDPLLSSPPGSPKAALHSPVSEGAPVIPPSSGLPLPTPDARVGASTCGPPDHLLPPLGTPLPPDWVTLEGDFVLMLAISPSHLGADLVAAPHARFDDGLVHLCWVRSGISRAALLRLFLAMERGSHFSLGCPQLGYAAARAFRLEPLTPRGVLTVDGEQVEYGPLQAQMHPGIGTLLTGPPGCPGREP

off-target kinases [3] = target: off-target kinases (Homo sapiens, UniProt Q9BYP7)
off-target kinases (Homo sapiens, UniProt Q9BYP7), sequence (Q9BYP7 whole entry): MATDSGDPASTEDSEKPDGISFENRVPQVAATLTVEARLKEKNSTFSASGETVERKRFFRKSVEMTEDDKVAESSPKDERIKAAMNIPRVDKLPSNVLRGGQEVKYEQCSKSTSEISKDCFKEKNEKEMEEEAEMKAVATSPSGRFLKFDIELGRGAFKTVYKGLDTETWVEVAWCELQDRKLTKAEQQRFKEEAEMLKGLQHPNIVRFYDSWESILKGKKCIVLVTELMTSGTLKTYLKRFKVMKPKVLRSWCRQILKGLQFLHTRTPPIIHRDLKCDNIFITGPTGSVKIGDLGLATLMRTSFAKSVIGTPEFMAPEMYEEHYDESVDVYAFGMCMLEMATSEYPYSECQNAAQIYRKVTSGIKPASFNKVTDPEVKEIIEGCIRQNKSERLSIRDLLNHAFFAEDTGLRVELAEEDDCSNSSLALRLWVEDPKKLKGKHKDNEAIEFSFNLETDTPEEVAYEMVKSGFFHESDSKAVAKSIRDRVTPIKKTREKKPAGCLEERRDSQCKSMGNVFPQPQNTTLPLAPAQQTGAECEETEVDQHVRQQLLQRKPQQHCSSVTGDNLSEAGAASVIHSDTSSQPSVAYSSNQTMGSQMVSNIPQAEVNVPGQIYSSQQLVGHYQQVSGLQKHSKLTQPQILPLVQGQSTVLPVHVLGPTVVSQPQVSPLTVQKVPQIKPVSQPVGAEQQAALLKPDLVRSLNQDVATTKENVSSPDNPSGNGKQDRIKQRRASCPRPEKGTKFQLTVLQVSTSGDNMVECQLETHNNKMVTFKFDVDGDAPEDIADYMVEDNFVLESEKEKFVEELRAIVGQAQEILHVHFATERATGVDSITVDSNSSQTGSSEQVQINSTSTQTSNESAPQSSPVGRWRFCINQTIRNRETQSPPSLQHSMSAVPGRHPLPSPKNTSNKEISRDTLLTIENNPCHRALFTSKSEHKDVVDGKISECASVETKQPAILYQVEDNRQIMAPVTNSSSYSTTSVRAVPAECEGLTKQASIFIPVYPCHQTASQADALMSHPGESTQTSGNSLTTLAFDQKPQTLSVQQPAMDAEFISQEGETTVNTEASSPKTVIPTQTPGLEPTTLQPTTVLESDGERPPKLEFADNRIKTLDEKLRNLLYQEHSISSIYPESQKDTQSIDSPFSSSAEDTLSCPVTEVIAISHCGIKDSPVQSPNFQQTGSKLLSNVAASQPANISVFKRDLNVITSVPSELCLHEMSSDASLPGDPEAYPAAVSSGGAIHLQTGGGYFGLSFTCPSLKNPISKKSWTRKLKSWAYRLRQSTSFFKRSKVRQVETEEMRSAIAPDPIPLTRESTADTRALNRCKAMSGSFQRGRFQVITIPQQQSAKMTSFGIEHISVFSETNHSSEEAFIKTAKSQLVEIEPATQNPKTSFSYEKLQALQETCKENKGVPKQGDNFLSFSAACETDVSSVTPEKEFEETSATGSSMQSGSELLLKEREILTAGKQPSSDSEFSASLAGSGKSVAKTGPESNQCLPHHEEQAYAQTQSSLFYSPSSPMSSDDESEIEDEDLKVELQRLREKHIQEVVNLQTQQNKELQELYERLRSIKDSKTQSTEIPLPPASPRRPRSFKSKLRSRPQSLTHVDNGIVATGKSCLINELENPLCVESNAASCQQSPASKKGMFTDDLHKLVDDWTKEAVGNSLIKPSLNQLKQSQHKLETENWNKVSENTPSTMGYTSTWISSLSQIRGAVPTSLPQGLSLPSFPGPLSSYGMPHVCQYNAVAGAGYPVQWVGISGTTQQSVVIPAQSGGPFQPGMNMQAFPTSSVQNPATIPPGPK

off-target kinases [4] = target: T2, off-target kinases (Homo sapiens, UniProt Q9Y2U5); conditions: MAP3K2 (MEKK2), LanthaScreen Binding
T2 sequence (Q9Y2U5 1-619): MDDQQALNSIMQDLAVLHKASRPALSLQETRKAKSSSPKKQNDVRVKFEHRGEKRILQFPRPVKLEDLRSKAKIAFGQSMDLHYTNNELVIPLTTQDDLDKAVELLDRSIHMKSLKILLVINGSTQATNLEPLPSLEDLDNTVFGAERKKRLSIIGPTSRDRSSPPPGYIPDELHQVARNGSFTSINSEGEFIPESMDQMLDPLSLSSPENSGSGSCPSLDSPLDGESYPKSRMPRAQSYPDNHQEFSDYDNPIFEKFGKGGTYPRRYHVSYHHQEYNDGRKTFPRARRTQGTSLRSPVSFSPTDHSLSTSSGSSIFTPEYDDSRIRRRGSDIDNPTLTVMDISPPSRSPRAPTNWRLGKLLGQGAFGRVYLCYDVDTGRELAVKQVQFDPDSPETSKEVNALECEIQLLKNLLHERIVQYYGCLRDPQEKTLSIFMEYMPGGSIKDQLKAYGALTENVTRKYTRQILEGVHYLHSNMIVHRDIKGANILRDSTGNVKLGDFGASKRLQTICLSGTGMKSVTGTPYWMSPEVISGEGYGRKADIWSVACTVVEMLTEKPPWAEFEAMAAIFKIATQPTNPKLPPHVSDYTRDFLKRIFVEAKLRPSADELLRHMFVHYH

off-target kinases [5] = target: off-target kinases (Homo sapiens, UniProt P27037); conditions: ACVR2A, LanthaScreen Binding
off-target kinases (Homo sapiens, UniProt P27037), sequence (P27037 20-513): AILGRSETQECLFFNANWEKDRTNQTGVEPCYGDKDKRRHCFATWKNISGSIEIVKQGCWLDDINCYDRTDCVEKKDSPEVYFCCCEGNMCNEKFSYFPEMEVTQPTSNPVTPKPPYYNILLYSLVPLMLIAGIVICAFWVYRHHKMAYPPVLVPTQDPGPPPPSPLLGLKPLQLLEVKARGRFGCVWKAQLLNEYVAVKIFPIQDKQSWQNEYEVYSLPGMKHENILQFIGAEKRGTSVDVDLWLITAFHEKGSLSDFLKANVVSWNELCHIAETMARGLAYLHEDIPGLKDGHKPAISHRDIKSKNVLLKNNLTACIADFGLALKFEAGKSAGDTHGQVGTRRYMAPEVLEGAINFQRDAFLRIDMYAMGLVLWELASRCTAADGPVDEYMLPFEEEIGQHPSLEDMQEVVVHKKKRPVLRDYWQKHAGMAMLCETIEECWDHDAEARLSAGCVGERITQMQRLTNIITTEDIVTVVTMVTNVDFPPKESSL

off-target kinases [6] = target: off-target kinases (Homo sapiens, UniProt Q00536); conditions: CDK16 (PCTK1)/cyclin Y, LanthaScreen Binding
off-target kinases (Homo sapiens, UniProt Q00536), sequence (Q00536 whole entry): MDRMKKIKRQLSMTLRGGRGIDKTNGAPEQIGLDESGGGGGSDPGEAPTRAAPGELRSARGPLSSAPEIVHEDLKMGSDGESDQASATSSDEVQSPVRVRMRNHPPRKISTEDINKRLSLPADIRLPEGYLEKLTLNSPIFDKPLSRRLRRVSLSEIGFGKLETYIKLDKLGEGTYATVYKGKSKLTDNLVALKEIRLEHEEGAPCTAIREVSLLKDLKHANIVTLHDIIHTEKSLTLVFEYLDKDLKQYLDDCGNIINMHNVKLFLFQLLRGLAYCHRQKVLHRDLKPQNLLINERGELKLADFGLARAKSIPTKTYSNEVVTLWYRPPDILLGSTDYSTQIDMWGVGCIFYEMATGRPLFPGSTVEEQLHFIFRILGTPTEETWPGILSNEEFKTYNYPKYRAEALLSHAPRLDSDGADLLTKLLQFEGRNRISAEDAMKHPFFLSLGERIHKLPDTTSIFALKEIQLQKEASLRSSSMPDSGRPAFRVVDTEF

N#Cc1cc(-c2ncnc(Nc3ccc(N4CCN(C5COC5)CC4)cc3)n2)ccc1OC1CCOCC1 [Compound 1, 5-(4-((4-(4-(oxetan-3-yl)piperazin-1-yl)phenyl)amino)-1,3,5-triazin-2-yl)-2-((tetrahydro-2H-pyran-4-yl)oxy)benzonitrile]
% Inhibition 1 (off-target kinases [1]): −14% | % Inhibition 2 (off-target kinases [1]): 2% | % Inhibition Avg (off-target kinases [1]): −6% | % Inhibition 1 (off-target kinases [2]): −16% | % Inhibition 2 (off-target kinases [2]): −2% | % Inhibition Avg (off-target kinases [2]): −9% | inhibition (off-target kinases [3]; WNK3, LanthaScreen Binding, read-out: % Inhibition 1): -3% | inhibition (off-target kinases [3]; WNK3, LanthaScreen Binding, read-out: % Inhibition Avg): -2% | inhibition (off-target kinases [3]; read-out: % Inhibition 2): 0% | inhibition (off-target kinases [4]; read-out: % Inhibition 1): 11% | inhibition (off-target kinases [4]; read-out: % Inhibition 2): 9% | inhibition (off-target kinases [4]; read-out: % Inhibition Avg): 10% | inhibition (off-target kinases [5]; read-out: % Inhibition 1): 23% | inhibition (off-target kinases [5]; read-out: % Inhibition 2): 21% | inhibition (off-target kinases [5]; read-out: % Inhibition Avg): 22% | inhibition (off-target kinases [6]; read-out: % Inhibition 1): 70% | inhibition (off-target kinases [6]; read-out: % Inhibition 2): 73% | inhibition (off-target kinases [6]; read-out: % Inhibition Avg): 71%
